From patent publication US20090036448A1, “PYRIMIDINE DERIVATIVES AND METHODS OF TREATMENT RELATED TO THE USE THEREOF” (TAISHO PHARMECUTICAL CO., LTD., priority 2004, published 2009) come the findings set out here.

Chain of MCH receptor (Q99705 whole entry): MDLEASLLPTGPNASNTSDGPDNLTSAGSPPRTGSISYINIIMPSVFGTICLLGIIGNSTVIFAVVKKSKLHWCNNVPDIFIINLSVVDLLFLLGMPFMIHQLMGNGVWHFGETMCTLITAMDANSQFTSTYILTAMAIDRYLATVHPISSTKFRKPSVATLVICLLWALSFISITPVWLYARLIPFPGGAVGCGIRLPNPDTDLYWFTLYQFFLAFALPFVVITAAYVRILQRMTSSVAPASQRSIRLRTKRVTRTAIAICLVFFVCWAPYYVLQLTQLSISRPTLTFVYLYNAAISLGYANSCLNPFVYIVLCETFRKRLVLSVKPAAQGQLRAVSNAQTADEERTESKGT

The assay has as its target MCH receptor (Homo sapiens, UniProt Q99705). Nature of the assay: Receptor binding assay with Radiolabelled MCH Ligand. More on the design: expressed in transfected cells; host or cells: 293 cells (human kidney, ATCC), transient transfection; crude membranes. The conditions noted are these: class by percent of control at 10^-7 M or IC50. The source says: In addition to the methods described herein, another means for evaluating a test compound is by determining binding affinities to the MCH receptor. This type of assay generally requires a radiolabelled ligand to the MCH receptor. Absent the use of known ligands for the MCH receptor and radiolabels thereof, compounds of Formula (I) can be labelled with a radioisotope and used in an assay for evaluating the affinity of a test compound to the MCH receptor.
A radiolabelled MCH compound of Formula (I) can be used in a screening assay to identify/evaluate compounds. In general terms, a newly synthesized or identified compound (i.e., test compound) can be evaluated for its ability to reduce binding of the “radiolabelled compound of Formula (I)” to the MCH receptor. Accordingly, the ability to compete with the “radio-labelled compound of Formula (I)” or Radiolabelled MCH Ligand for the binding to the MCH receptor directly correlates to its binding affinity of the test compound to the MCH receptor.
293 cells (human kidney, ATCC), transiently transfected with 10 μg human MCH receptor and 60 μl Lipofectamine (per 15-cm dish), are grown in the dish for 24 hours (75% confluency) with a media change and removed with 10 mL/dish of Hepes-EDTA buffer (20 mM Hepes+10 mM EDTA, pH 7.4). The cells are then centrifuged in a Beckman Coulter centrifuge for 20 minutes, 17,000 rpm (JA-25.50 rotor). Subsequently, the pellet is resuspended in 20 mM Hepes+1 mM EDTA, pH 7.4 and homogenized with a 50-mL Dounce homogenizer and again centrifuged. After removing the supernatant, the pellets can be stored at −80° C., until used in binding assay. When used in the assay, membranes are thawed on ice for 20 minutes and then 10 mL of incubation buffer (20 mM Hepes, 1 mM MgCl2, 100 mM NaCl, pH 7.4) added. The membranes are then vortexed to resuspend the crude membrane pellet and homogenized with a Brinkmann PT-3100 Polytron homogenizer for 15 seconds at setting 6. The concentration of membrane protein is determined using the BRL Bradford protein assay.
For total binding, a total volume of 50 ul of appropriately diluted membranes (diluted in assay buffer containing 50 mM Tris HCl (pH 7.4), 1 mM MgCl2, and 1 mM EDTA; 5-50 ug protein) is added to 96-well polyproylene microtiter plates followed by addition of 100 μl of assay buffer and 50 μl of Radiolabelled MCH Ligand. For nonspecific binding, 50 μl of assay buffer is added instead of 100 μl and an additional 50 μl of 10 uM cold MCH is added before 50 μl of Radiolabelled MCH Ligand is added. Plates are then incubated at room temperature for 60-120 minutes. The binding reaction is terminated by filtering assay plates through a Microplate Devices GF/C Unifilter filtration plate with a Brandell 96-well plate harvester followed by washing with cold 50 mM Tris HCl, pH 7.4 containing 0.9% NaCl. Then, the bottom of the filtration plate are sealed, 50 ul of Optiphase Supermix is added to each well, the top of the plates are sealed, and plates are counted in a Trilux MicroBeta scintillation counter. For compound competition studies, instead of adding 100 μl of assay buffer, 100 μl of appropriately diluted test compound is added to appropriate wells followed by addition of 50 μl of Radiolabelled MCH Ligand.
The test compounds are initially assayed at 1 and 0.1 μM and then at a range of concentrations chosen such that the middle dose would cause about 50% inhibition of a Radiolabelled MCH Ligand binding (i.e., IC50). Specific binding in the absence of test compound (BO) is the difference of total binding (BT) minus non-specific binding (NSB) and similarly specific binding (in the presence of test compound) (B) is the difference of displacement binding (BD) minus non-specific binding (NSB). IC50 is determined from an inhibition response curve, logit-log plot of % B/BO vs. concentration of test compound.
Ki is calculated by the Cheng and Prustoff transformation: […]
For `Cc1nc(N[C@H]2CC[C@@H](NCc3cccc4c3-c3ccccc3C4=O)CC2)cc(N(C)C)n1` [compound 392], the class is 3 (Class 3: The value of percent of control at 10^−7 M was more than 60% or the value of IC50 was more than 200 nM.). On to `Cc1nc(N[C@H]2CC[C@@H](NC(=O)c3ccc(S(C)(=O)=O)cc3)CC2)cc(N(C)C)n1` [compound 343], for which the class is listed as 3 (Class 3: The value of percent of control at 10^−7 M was more than 60% or the value of IC50 was more than 200 nM.).

For `Cc1nc(N[C@H]2CC[C@@H](NC(=O)c3ccc(-c4cnco4)cc3)CC2)cc(N(C)C)n1` [compound 347], the class is 3 (Class 3: The value of percent of control at 10^−7 M was more than 60% or the value of IC50 was more than 200 nM.). In the case of `CC(=O)c1ccc(S(=O)(=O)N[C@H]2CC[C@@H](Nc3cc(N(C)C)nc(C)n3)CC2)cc1` [compound 484], the class was 3 (Class 3: The value of percent of control at 10^−7 M was more than 60% or the value of IC50 was more than 200 nM.). Regarding `CCc1cccc(CC)c1NC(=S)N[C@H]1CC[C@@H](Nc2cc(N(C)C)nc(C)n2)CC1` [compound 438, N-(2,6-diethylphenyl)-N′-(cis-4-{[6-(dimethylamino)-2-methylpyrimidin-4-yl]amino}cyclohexyl)thiourea], the class is listed as 2 (Class 2: The value of percent of control at 10^−7 M was from 40% to 60% or the value of IC50 was from 50 nM to 200 nM.). Next, `Cc1nc(N[C@H]2CC[C@@H](NS(=O)(=O)c3ccc(Oc4ccccc4)cc3)CC2)cc(N(C)C)n1` [compound 496]: 3 (Class 3: The value of percent of control at 10^−7 M was more than 60% or the value of IC50 was more than 200 nM.). On to `Cc1nc(N[C@H]2CC[C@@H](NC(=O)c3ccccc3-c3ccccc3)CC2)cc(N(C)C)n1` [compound 325], for which the class is on record as 3 (Class 3: The value of percent of control at 10^−7 M was more than 60% or the value of IC50 was more than 200 nM.). For `Cc1nc(N[C@H]2CC[C@@H](NC(=O)c3ccccc3C(=O)c3sc4ccccc4c3C)CC2)cc(N(C)C)n1` [compound 323], the class was 3 (Class 3: The value of percent of control at 10^−7 M was more than 60% or the value of IC50 was more than 200 nM.).

Consider `Cc1nc(N[C@H]2CC[C@@H](NC(=O)/C=C/c3ccc([N+](=O)[O-])cc3)CC2)cc(N(C)C)n1` [compound 263], for which the class is given as 3 (Class 3: The value of percent of control at 10^−7 M was more than 60% or the value of IC50 was more than 200 nM.).

With `Cc1nc(N[C@H]2CC[C@@H](NC(=O)c3cn(S(=O)(=O)c4ccccc4)c4ccccc34)CC2)cc(N(C)C)n1` [compound 348], the class is 3 (Class 3: The value of percent of control at 10^−7 M was more than 60% or the value of IC50 was more than 200 nM.). Consider `Cc1nc(N[C@H]2CC[C@@H](NC(=O)c3ccc4c(c3)C(=O)c3ccccc3C4=O)CC2)cc(N(C)C)n1` [compound 198], for which the class is 3 (Class 3: The value of percent of control at 10^−7 M was more than 60% or the value of IC50 was more than 200 nM.). For `Cc1nc(N[C@H]2CC[C@@H](NCc3cccc([N+](=O)[O-])c3)CC2)cc(N(C)C)n1` [compound 379], the class is on record as 3 (Class 3: The value of percent of control at 10^−7 M was more than 60% or the value of IC50 was more than 200 nM.). As to `Cc1nc(N[C@H]2CC[C@@H](NC(=O)c3nn(-c4ccccc4)nc3C)CC2)cc(N(C)C)n1` [compound 228], the class is on record as 3 (Class 3: The value of percent of control at 10^−7 M was more than 60% or the value of IC50 was more than 200 nM.). As to `Cc1nc(N[C@H]2CC[C@@H](NC(=O)c3ccccc3C(=O)N[C@@H](C)c3ccccc3)CC2)cc(N(C)C)n1` [compound 328], the class is recorded as 3 (Class 3: The value of percent of control at 10^−7 M was more than 60% or the value of IC50 was more than 200 nM.). For `Cc1nc(N[C@H]2CC[C@@H](NC(=O)Nc3ccc(Cl)cc3C)CC2)cc(N(C)C)n1` [compound 418, N-(4-chloro-2-methylphenyl)-N′-(cis-4-{[6-(dimethylaminio)-2-methylpyrimidin-4-yl]amino}cyclohexyl)urea], the class was 3 (Class 3: The value of percent of control at 10^−7 M was more than 60% or the value of IC50 was more than 200 nM.). As for `Cc1nc(N[C@H]2CC[C@@H](NC(=O)c3scc(S(=O)(=O)c4ccc(Cl)cc4)c3C)CC2)cc(N(C)C)n1` [compound 216], the class is on record as 3 (Class 3: The value of percent of control at 10^−7 M was more than 60% or the value of IC50 was more than 200 nM.).

Take `Cc1nc(N[C@H]2CC[C@@H](NCc3cc4ccccc4s3)CC2)cc(N(C)C)n1` [compound 357]: the class is 3 (Class 3: The value of percent of control at 10^−7 M was more than 60% or the value of IC50 was more than 200 nM.). For the compound `Cc1nc(N[C@H]2CC[C@@H](NC(=S)Nc3ccc(C#N)cc3)CC2)cc(N(C)C)n1` [compound 450], the class is 3 (Class 3: The value of percent of control at 10^−7 M was more than 60% or the value of IC50 was more than 200 nM.).

`Cc1nc(N[C@H]2CC[C@@H](NC(=O)C(C)(C)Oc3ccc(Cl)cc3)CC2)cc(N(C)C)n1` [compound 268]: the class is reported as 3 (Class 3: The value of percent of control at 10^−7 M was more than 60% or the value of IC50 was more than 200 nM.). Next, `CCCCCc1ccc(CN[C@H]2CC[C@@H](Nc3cc(N(C)C)nc(C)n3)CC2)cc1` [compound 397]: 3 (Class 3: The value of percent of control at 10^−7 M was more than 60% or the value of IC50 was more than 200 nM.); `Cc1ccc(C(=O)c2ccccc2C(=O)N[C@H]2CC[C@@H](Nc3cc(N(C)C)nc(C)n3)CC2)cc1` [compound 330]: 3 (Class 3: The value of percent of control at 10^−7 M was more than 60% or the value of IC50 was more than 200 nM.). `Cc1nc(N[C@H]2CC[C@@H](NC(=O)c3cccnc3Sc3ccccc3)CC2)cc(N(C)C)n1` [compound 266]: the class is 3 (Class 3: The value of percent of control at 10^−7 M was more than 60% or the value of IC50 was more than 200 nM.).

Take `Cc1nc(N[C@H]2CC[C@@H](NC(=S)NCC(c3ccccc3)c3ccccc3)CC2)cc(N(C)C)n1` [compound 434]: the class is 3 (Class 3: The value of percent of control at 10^−7 M was more than 60% or the value of IC50 was more than 200 nM.). On to `Cc1nc(N[C@H]2CC[C@@H](NC(=O)c3ccc(Cl)cc3)CC2)cc(N(C)C)n1` [compound 208, 4-chloro-N-(cis-4-{[6-(dimethylamino)-2-methylpyrimidin-4-yl]amino}cyclohexyl)benzamide], for which the class is 2 (Class 2: The value of percent of control at 10^−7 M was from 40% to 60% or the value of IC50 was from 50 nM to 200 nM.). In the case of `Cc1nc(N[C@H]2CC[C@@H](NCc3ccco3)CC2)cc(N(C)C)n1` [compound 373], the class was 3 (Class 3: The value of percent of control at 10^−7 M was more than 60% or the value of IC50 was more than 200 nM.). For `Cc1nc(N[C@H]2CC[C@@H](NC(=O)Cc3nc(-c4ccccc4)sc3C)CC2)cc(N(C)C)n1` [compound 289] the value was 3 (Class 3: The value of percent of control at 10^−7 M was more than 60% or the value of IC50 was more than 200 nM.). Next, `COc1cc(OC)c(NC(=O)N[C@H]2CC[C@@H](Nc3cc(N(C)C)nc(C)n3)CC2)cc1Cl` [compound 426, N-(5-chloro-2,4-dimethoxyphenyl)-N′-(cis-4-{[6-(dimethylamino)-2-methylpyrimidin-4-yl]amino}cyclohexyl)urea]: 2 (Class 2: The value of percent of control at 10^−7 M was from 40% to 60% or the value of IC50 was from 50 nM to 200 nM.).
